The supplement of paper PMC11061612

Experiments:
Experiment in all cases: combination Emax (second highest fraction inhibited in the dose matrix, 72 h); higher = more inhibition; extreme values may be limits of the assay
GI-1 (Glioblastoma) = tested on: GI-1 (Glioblastoma)
Summary of the method: (§1)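 Cell lines grown in DMEM/F12 or RPMI with 10% FBS were plated in 1536-well plates and held 24 hours at 37°C, 5% CO2 before 72 hours of exposure to two-drug dose matrices, with DMSO typically at 0.2%. CellTiter-Glo 2.0 luminescence gave viability, which was converted to inhibition. Vehicle wells were set to 0 and blank wells to 1. Combination Emax is the second-highest inhibition in the matrix, and Bliss excess is the observed combination effect minus the expected EA + EB − EA·EB, where EA and EB are the single-agent effects.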

[1] = tested on: OVISE (Ovarian Carcinoma)
Summary of the method: as §1

[2] = tested on: KP-2 (Pancreatic Carcinoma)
Summary of the method: as §1

[3] = tested on: H-EMC-SS (Chondrosarcoma)
Summary of the method: as §1

[4] = tested on: HuP-T3 (Pancreatic Carcinoma)
Summary of the method: as §1

[5] = tested on: JHH-7 (Hepatocellular Carcinoma)
Summary of the method: as §1

[6] = tested on: SNU-C1 (Colorectal Carcinoma)
Summary of the method: as §1

[7] = tested on: NCI-H1573 (Lung Adenocarcinoma)
Summary of the method: as §1

[8] = tested on: KU-19-19 (Bladder Carcinoma)
Summary of the method: as §1

[9] = tested on: BV-173 (Chronic Myelogenous Leukemia)
Summary of the method: as §1

[10] = tested on: EBC-1 (Squamous Cell Lung Carcinoma)
Summary of the method: as §1

[11] = tested on: NCI-H2405 (Lung Adenocarcinoma)
Summary of the method: as §1

[12] = tested on: SCC-9 (Oral Cavity Carcinoma)
Summary of the method: as §1

[13] = tested on: VMRC-LCD (Lung Adenocarcinoma)
Summary of the method: as §1

In the case of `COc1cc2ncnc(Nc3ccc(F)c(Cl)c3)c2cc1OCCCN1CCOCC1` [Gefitinib] + CC(C)n1c(=O)n(C)c2cnc3cc(F)c(-c4ccc(OCCCN5CCCCC5)nc4)cc3c21 [AZD1390] (first compound max 10 µM, 7x7, partner max 0.3 µM), the “combination Emax” value (GI-1 (Glioblastoma)) is reported as 0.18, the “combination Emax” value [1] is reported as 0.197 and the “combination Emax” value [2] is reported as 0.0653. For the same compound, the “combination Emax” value [3] was 0.201, the “combination Emax” value [4] was 0.14 and the “combination Emax” value [5] was 0.115. The “combination Emax” value [6] was 0.0654, the “combination Emax” value [7] was 0.162 and the “combination Emax” value [8] was 0.0903. The “combination Emax” value [9] was 0.391, the “combination Emax” value [10] was 0.0862 and the “combination Emax” value [11] was 0.0242. For the same compound, the “combination Emax” value [12] was 0.626 and the “combination Emax” value [13] was 0.0987.
